The text below walks through data of patent publication US5877185A, “Synergistic compositions useful as anti-tumor agents” (priority 1995, dated 1999).

One data set deals with HT 144. Put plainly: cytotoxicity of INO2 BA with and without BSO, HT 144. It counts as cell-based. The conditions noted are these: Homo sapiens. How it is done: (§1) The concentration of BSO was 1 mM for all cell lines except HT 144, where the concentration was 0.25 mM. Cells were seeded in the recommended growth medium at a density of 1.5×10^4 cell/cm^2 into 2 cm^2 wells. Drugs were added simultaneously 4 hours after seeding, and incubation was continued for 48 hours at 37° C. in a 5% CO2 atmosphere. For assessment of drug effects cells were detached by trypsinization and counted in a hemacytometer.
(§2) Cell lines Nos. 1-4 were obtained from Dr. C. Benz, University of California, San Francisco. MDA 468 and MCF-7 human mammary cancer lines, MCF-7-B-ADR drug-resistant mammary cancer line, Du 145 drug-resistant human prostate cancer line, HT 144 human melanoma cell line, Hep-G2 human hepatocellular carcinoma line, and PC-12 rat pheochromocytoma line were obtained from the University of California Cell Culture Facility.

Another data set has as its system PC-12. Put plainly: cytotoxicity of INO2 BA with and without BSO, PC-12. It counts as cell-based. Conditions: Rattus norvegicus, INO2 BA alone, 48 hours. Here is the method: as §1, §2
In another data set the test system is HL 60. The experiment in a line: cytotoxicity of INO2 BA with and without BSO, HL 60. The format is cell-based. The conditions noted are these: Homo sapiens, INO2 BA alone, 48 hours. Here is the method: as §1, §2
A further data set deals with L 1210 cells. Put plainly: cytotoxic effect of IABP and INO2 BA, alone and combined, on L 1210 cell growth. It counts as cell-based, murine. Conditions: Mus musculus, L1210, 72 h; INO2 BA 64 μM, three days; read-out: decrease of L 1210 cell proliferation. How it is done:
64 μM INO2 BA decreased L 1210 cell proliferation by approximately 80% over a three day growth period.

For data set [1], the system named is HIV in intact human macrophages. The conditions noted are these: Kun et al., Abstract 422A; cited from earlier work.
Data set [2] concerns HIV-1 (MN strain) virions. The experiment in a line: zinc loss from treatment of HIV-1 virions with NOBA. It counts as biochemical. Here is the method:
Experiments were performed to determine if NOBA is capable of ejecting zinc from intact virions. HIV-1 (MN strain) was produced, purified and concentrated as described in Bess et al., J. Virol. 66:840-847 (1992). The concentrated virus was diluted to 60 times that of culture fluid in TNE buffer (0.01M Tris-HCl, 0.1M NaCl, 1 mM EDTA, pH 7.2) and incubated with 3000 or 6000 μM NOBA at 37° C. The virus was then pelleted and washed with TNE buffer to remove weakly bound zinc. The quantity of zinc in the resulting viral pellets was determined as described in Bess et al., J. Virol. 66:840-847 (1992).

For the next data set, the system named is HIV-1 (LAV strain). Put plainly: in vitro anti-retroviral testing (HIV-1 inactivation) in human peripheral lymphocytes (PBL). The format is cell-based. How it is done: Both 6-NOBP and NOBA were tested on viral growth of HIV-1 (LAV strain) in phytohemagglutinin-stimulated human peripheral lymphocytes (PBL). An HIV-1 stock having an infectivity titer of 100,000 TCID50 was incubated for 30 min. at 22° C. with either of the drugs. Control HIV samples, containing no drugs, were incubated in the same manner. […] At the end of this incubation cultures were assayed for productive infection by an immunoassay for HIV-1 antigens and by reverse transcriptase as described in McDougal et al., J. Immunol. Methods 76:171-183 (1985). Virus titers were expressed as percentile values (percent infected cultures) compared to the controls, containing HIV dilutions which were not preincubated with the C-nitroso drugs. In a separate series of experiments, HIV-1 dilutions and C-nitroso drugs (see upper abscissa) were not preincubated but were added simultaneously to lymphocytes in exactly the same concentrations as described previously (i.e., following preincubation) and viral growth monitored 9 days later.

A further data set concerns neutrophil granulocytes. The conditions noted are these: tumoricidal concentrations; cited from earlier work.
Data set [3] deals with human immunodeficiency virus HIV-1. Conditions: human lymphocytes; cited from earlier work.
A further data set relates to HIV-1 NC zinc fingers. Conditions: isolated HIV-1 NC zinc fingers and intact HIV-1 virions; cited from earlier work.

pIC50: −log10 of the molar value.

For `NC(=O)c1ccc(I)c([N+](=O)[O-])c1` [INO2 BA, 4-iodo-3-nitrobenzamide], the IC100 worked out at 200 µM in the data set on HT 144 (HT-144, 48 h, read-out: LD100); 120 µM in the data set on PC-12 (read-out: LD100); 125 µM in the data set with HL 60 (read-out: LD100). Moreover, the pIC50 was 4.00 with HT 144 (HT-144, INO2 BA alone, 48 hours, read-out: I50); 4.22 in the data set with PC-12 (read-out: I50); 4.15 with HL 60 (read-out: I50). Also, in the data set on L 1210 cells, the inhibition at 64 µM was approximately 80%. Further, the “inhibition of HIV replication” value in [1] is “readily inhibited”.

As for `NC(=O)c1cccc(N=O)c1` [NOBA, 3-nitrosobenzamide], the “Zinc Loss” value in data set [2] (3,000 μM NOBA, 2 hr) is 52%; in [2] (6,000 μM NOBA, 4 hr), 83%. The “Zinc, NOBA-Treated Sample” value in data set [2] (3,000 μM NOBA, 2 hr, control 0.21) was 0.11 µg/mL; in data set [2] (6,000 μM NOBA, 4 hr, control 0.24), 0.04 µg/mL. Also, in data set [2] (3000 or 6000 μM NOBA), the “loss of viral proteins in the pellet” value is recorded as “No significant loss”. Further, the “TCID50 (calculated infectious titer after treatment)” value with HIV-1 (LAV strain) (100 μM) is 11 TCID50. The “decrease of relative amount of infectious virus available to cause 50% infected cultures” value in the data set on HIV-1 (LAV strain) (30 min. at 22° C., FIG. 7A) is 4 log units. Besides, in the data set on HIV-1 (LAV strain) (Human immunodeficiency virus 1, Lymphocyte, 0.5 h, 100 μM, of TCID50, read-out: Decrease), the log reduction at 100 µM is 4.2. Besides, the inhibition at 100 µM in the data set with HIV-1 (LAV strain) (Human immunodeficiency virus 1, Lymphocyte, 100 μM) is more than 100%. The “effect on superoxide formation by neutrophil granulocytes” value in the data set on neutrophil granulocytes is reported as “relatively harmless”. In [3], the “inhibition of HIV-1 infection” value is recorded as “inhibit infection”. Further, the zinc ejection result in the data set with HIV-1 NC zinc fingers is “eject zinc”.
